Data: ChEMBL document CHEMBL4257573, “Synthesis, modification, and cytotoxic evaluation of 2,3-secotriterpenic β-ketoesters” (Bioorg Med Chem Lett, 2018)

Legend:
HEp-2 = assay: Cytotoxicity against human Hep2 cells assessed as reduction in cell viability after 72 hrs by MTT assay; type: functional, cell-based; details: HEp-2, 72 h
HCT-116 [1] = assay: Cytotoxicity against human HCT116 cells assessed as reduction in cell viability after 72 hrs by MTT assay; type: functional, cell-based; details: for IC50: HCT-116, 72 h
[2] = Cytotoxicity against human MS cells assessed as reduction in cell viability after 72 hrs by MTT assay; type: functional, cell-based
RD = assay: Cytotoxicity against human RD cells assessed as reduction in cell viability after 72 hrs by MTT assay; type: functional, cell-based
A549 = assay: Cytotoxicity against human A549 cells assessed as reduction in cell viability after 72 hrs by MTT assay; type: functional, cell-based; details: A549, 72 h
MCF7 = assay: Cytotoxicity against human MCF7 cells assessed as reduction in cell viability after 72 hrs by MTT assay; type: functional, cell-based; details: MCF7, 72 h
HEK293 = assay: Cytotoxicity against HEK293 cells assessed as reduction in cell viability after 72 hrs by MTT assay; type: cell-based; details: Homo sapiens, HEK293, 72 h
[3] = Selectivity index, ratio of IC50 for HEK293 cells to IC50 for human Hep2 cells; type: toxicity; details: HEK293 cells versus Hep2 cells, read-out: Ratio IC50
[4] = Selectivity index, ratio of IC50 for HEK293 cells to IC50 for human MS cells; type: toxicity; details: HEK293 cells versus MS cells, read-out: Ratio IC50
[5] = Selectivity index, ratio of IC50 for HEK293 cells to IC50 for human MCF7 cells; type: toxicity; details: HEK293 cells versus MCF7 cells, read-out: Ratio IC50
HCT-116 [6] = assay: Cytotoxicity against human HCT116 cells assessed as reduction in cell viability at 2 uM by MTT assay; type: functional, cell-based; details: TDE = time-dependent effect

| SMILES | IC50 (HEp-2) [µM] | IC50 (HCT-116 [1]) [µM] | IC50 [2] [µM] | IC50 (RD) [µM] | IC50 (A549) [µM] | IC50 (MCF7) [µM] | IC50 (HEK293) [µM] | selectivity ratio [3] | selectivity ratio [4] | selectivity ratio [5] | Activity (HCT-116 [1]) | Activity (HCT-116 [6]) |
| --- | --- | --- | --- | --- | --- | --- | --- | --- | --- | --- | --- | --- |
| CC(=O)OCC(=O)C(C)(C)[C@@H]1CC[C@]2(C)[C@H](CC[C@@H]3[C@H]4[C@H]5OC[C@@]4(CCC5(C)C)CC[C@]32C)[C@@]1(C)CC#N | > 100 | > 100 | > 100 | > 100 | > 100 | > 100 | – | – | – | – | – | – |
| CC1(C)CC[C@]23CC[C@]4(C)[C@H](CC[C@@H]5[C@@](C)(CC#N)[C@H](C(C)(C)C(=O)COC(=O)c6cccnc6)CC[C@]54C)[C@H]2[C@H]1OC3 | > 100 | > 100 | > 100 | > 100 | > 100 | > 100 | – | – | – | – | – | – |
| CC(=O)Oc1ccccc1C(=O)OCC(=O)C(C)(C)[C@@H]1CC[C@]2(C)[C@H](CC[C@@H]3[C@H]4[C@H]5OC[C@@]4(CCC5(C)C)CC[C@]32C)[C@@]1(C)CC#N | > 100 | > 100 | > 100 | > 100 | > 100 | > 100 | – | – | – | – | – | – |
| CC1(C)CC[C@]23CC[C@]4(C)[C@H](CC[C@@H]5[C@@](C)(CC#N)[C@H](C(C)(C)C(=O)COC(=O)CC(=O)CC(=O)O)CC[C@]54C)[C@H]2[C@H]1OC3 | > 100 | > 100 | 87.5 | 50.1 | 69.5 | > 100 | – | – | – | – | – | – |
| CC(C)(CC(=O)OCC(=O)C(C)(C)[C@@H]1CC[C@]2(C)[C@H](CC[C@@H]3[C@H]4[C@H]5OC[C@@]4(CCC5(C)C)CC[C@]32C)[C@@]1(C)CC#N)C(=O)O | > 100 | > 100 | > 100 | > 100 | > 100 | > 100 | – | – | – | – | – | – |
| C=C(C=O)[C@@H]1CC[C@]2(C(=O)OC)CC[C@]3(C)[C@H](CC[C@@H]4[C@@](C)(CC#N)[C@H](C(C)(C)C(=O)COC(=O)c5cccnc5)CC[C@]43C)[C@@H]12 | 29.5 | 7.03 | 8.27 | 8.98 | 40.3 | 35 | 59.4 | 1.47 to 8.45 | 1.47 to 8.45 | 1.47 to 8.45 | – | – |
| CC1(C)CC[C@]23CC[C@]4(C)[C@H](CC[C@@H]5[C@]6(C)[C@@H](CC[C@]54C)C(C)(C)[C@@](O)(CO)[C@H]6C#N)[C@H]2[C@H]1OC3 | > 100 | > 100 | > 100 | > 100 | > 100 | > 100 | – | – | – | – | – | – |
| C=C(CO)[C@@H]1CC[C@]2(C(=O)OC)CC[C@]3(C)[C@H](CC[C@@H]4[C@@](C)(CC#N)[C@H](C(C)(C)C(=O)COC(C)=O)CC[C@]43C)[C@@H]12 | 81.2 | 43.7 | 24 | 33.4 | 50.7 | 10.3 | – | – | – | – | – | – |
| CC1(C)CC[C@]23CC[C@]4(C)[C@H](CC[C@@H]5[C@@](C)(CC#N)[C@H](C(C)(C)C(=O)C(Cl)Cl)CC[C@]54C)[C@H]2[C@H]1OC3 | > 100 | 13.2 | 24.7 | 11.3 | 35.2 | 10.8 | – | – | – | – | – | – |
| CC1(C)CC[C@]23CC[C@]4(C)[C@H](CC[C@@H]5[C@@](C)(CC#N)[C@H](C(C)(C)C(O)CO)CC[C@]54C)[C@H]2[C@H]1OC3 (stereo partly drawn) | > 100 | 81.9 | 38 | > 100 | > 100 | 59.8 | – | – | – | – | – | – |
| CC1(C)CC[C@]23CC[C@]4(C)[C@H](CC[C@@H]5[C@@](C)(CC#N)[C@H](C(C)(C)C(=O)CO)CC[C@]54C)[C@H]2[C@H]1OC3 | > 100 | > 100 | > 100 | > 100 | > 100 | > 100 | – | – | – | – | – | – |
| CC1(C)CC[C@]23CC[C@]4(C)[C@H](CC[C@@H]5[C@@](C)(CC#N)[C@H](C(C)(C)C(=O)COC(=O)/C=C/c6ccccc6)CC[C@]54C)[C@H]2[C@H]1OC3 | > 100 | 28.5 | > 100 | 44.3 | > 100 | > 100 | – | – | – | – | – | – |
| C=C(CO)[C@@H]1CC[C@]2(C(=O)OC)CC[C@]3(C)[C@H](CC[C@@H]4[C@@](C)(CC#N)[C@H](C(C)(C)C(O)CO)CC[C@]43C)[C@@H]12 (stereo partly drawn) | > 100 | > 100 | > 100 | 72.4 | > 100 | > 100 | – | – | – | – | – | – |
| C=C(C=O)[C@@H]1CC[C@]2(C(=O)OC)CC[C@]3(C)[C@H](CC[C@@H]4[C@@](C)(CC#N)[C@H](C(C)(C)C(=O)COC(=O)c5ccccc5OC(C)=O)CC[C@]43C)[C@@H]12 | 36.2 | 4.91 | 12.8 | 4.81 | 22.8 | > 100 | 108 | 1.08 to 22.5 | 1.08 to 22.5 | 1.08 to 22.5 | – | – |
| CC1(C)CC[C@]23CC[C@]4(C)[C@H](CC[C@@H]5[C@@](C)(CC#N)[C@H](C(C)(C)C(=O)COC(=O)CCC(=O)O)CC[C@]54C)[C@H]2[C@H]1OC3 | > 100 | > 100 | > 100 | > 100 | > 100 | > 100 | – | – | – | – | – | – |
| COc1cccc2c1C(=O)c1c(O)c3c(c(O)c1C2=O)C[C@@](O)(C(=O)CO)C[C@@H]3O[C@H]1C[C@H](N)[C@H](O)[C@H](C)O1 [DOXORUBICIN] | 1.78 | – | 1.29 | 1.27 | – | – | 0.02 | – | – | – | Dose-dependent effect | Tde |
| C=C(C=O)[C@@H]1CC[C@]2(C(=O)OC)CC[C@]3(C)[C@H](CC[C@@H]4[C@@](C)(CC#N)[C@H](C(C)(C)C(=O)COC(=O)/C=C/c5ccccc5)CC[C@]43C)[C@@H]12 | 84.8 | 13.2 | 22 | 3.65 | > 100 | 8.54 | 184 | 1.84 to 50.3 | 1.84 to 50.3 | 1.84 to 50.3 | – | – |
| C=C(C=O)[C@@H]1CC[C@]2(C(=O)OC)CC[C@]3(C)[C@H](CC[C@@H]4[C@]5(C)[C@@H](CC[C@]43C)C(C)(C)[C@@](O)(CO)[C@H]5C#N)[C@@H]12 | 23.7 | 9.32 | 12.3 | 5.83 | 28.8 | 8.39 | 118 | 4.08 to 20.2 | 4.08 to 20.2 | 4.08 to 20.2 | – | – |
| CC1(C)CC[C@]23CC[C@]4(C)[C@H](CC[C@@H]5[C@@](C)(CC#N)[C@H](C(C)(C)C(=O)[C@@H](Cl)Br)CC[C@]54C)[C@H]2[C@H]1OC3 | > 100 | 13.2 | 24.7 | 11.3 | 35.2 | 10.8 | – | – | – | – | – | – |
| CC1(C)CC[C@]23CC[C@]4(C)[C@H](CC[C@@H]5[C@@](C)(CC#N)[C@H](C(C)(C)C(=O)COC=O)CC[C@]54C)[C@H]2[C@H]1OC3 | > 100 | > 100 | > 100 | > 100 | > 100 | > 100 | – | – | – | – | – | – |
| C=C(C=O)[C@@H]1CC[C@]2(C(=O)OC)CC[C@]3(C)[C@H](CC[C@@H]4[C@@](C)(CC#N)[C@H](C(C)(C)C(=O)COC=O)CC[C@]43C)[C@@H]12 | 78.9 | 79.8 | 49.1 | 49.4 | > 100 | 30 | – | – | – | – | – | – |
| CC1(C)CC[C@]23CC[C@]4(C)[C@H](CC[C@@H]5[C@@](C)(CC#N)[C@H](C(C)(C)C(=O)COC(=O)CCCCCCCCC(=O)O)CC[C@]54C)[C@H]2[C@H]1OC3 | > 100 | > 100 | > 100 | > 100 | > 100 | > 100 | – | – | – | – | – | – |
